According to US20250154115A1, “ARYLBENZOISOXAZOLE COMPOUNDS AS IP6K AND IPMK INHIBITORS AND METHODS OF USE THEREOF” (THE UNIVERSITY OF NORTH CAROLINA AT CHAPEL HILL, priority 2022, published 2025):
Where a name gives a salt, the structure may show the parent alone.

How the values were obtained:
Assay type in all cases: biochemical
Details in all cases: enzyme-coupled assay
IP6K3 = IP6K3 (Homo sapiens (Human), UniProt Q96PC2); assay: Enzyme-coupled assay of IP6K3 activity (Dipp1-coupled, malachite green Pi release)
Sequence of IP6K3 (Q96PC2 whole entry): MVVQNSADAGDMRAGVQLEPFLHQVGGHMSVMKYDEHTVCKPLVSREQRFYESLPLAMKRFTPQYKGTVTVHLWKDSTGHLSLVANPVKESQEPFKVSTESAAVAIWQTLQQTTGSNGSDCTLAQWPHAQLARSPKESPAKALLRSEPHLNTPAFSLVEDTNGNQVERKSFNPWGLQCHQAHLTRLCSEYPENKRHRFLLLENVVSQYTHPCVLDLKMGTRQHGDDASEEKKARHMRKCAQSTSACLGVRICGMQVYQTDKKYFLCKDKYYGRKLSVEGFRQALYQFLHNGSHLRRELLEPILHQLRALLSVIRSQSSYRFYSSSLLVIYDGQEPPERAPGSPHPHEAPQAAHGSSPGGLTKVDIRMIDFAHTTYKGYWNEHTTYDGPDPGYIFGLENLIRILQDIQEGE

IP6K2 = IP6K2 (Homo sapiens (Human), UniProt Q9UHH9); assay: Enzyme-coupled assay of IP6K2 activity (Dipp1-coupled, malachite green Pi release)
Sequence of IP6K2 (Q9UHH9 whole entry): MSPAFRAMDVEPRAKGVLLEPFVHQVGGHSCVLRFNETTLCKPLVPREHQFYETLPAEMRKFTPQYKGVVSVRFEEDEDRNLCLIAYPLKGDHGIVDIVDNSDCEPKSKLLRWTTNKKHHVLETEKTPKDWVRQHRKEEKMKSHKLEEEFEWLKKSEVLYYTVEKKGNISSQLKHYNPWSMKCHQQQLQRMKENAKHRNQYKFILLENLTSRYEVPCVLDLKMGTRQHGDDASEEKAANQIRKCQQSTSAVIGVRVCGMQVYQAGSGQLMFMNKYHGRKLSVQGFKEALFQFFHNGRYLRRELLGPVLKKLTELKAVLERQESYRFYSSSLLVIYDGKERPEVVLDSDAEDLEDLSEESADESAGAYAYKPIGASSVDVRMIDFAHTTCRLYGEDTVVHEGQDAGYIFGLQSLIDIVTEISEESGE
Protocol: (§1) […] The cells were disrupted using a constant cell disruption system (Constant Systems) under 20 kPsi.
(§2) Pi release was determined with a malachite green colorimetric assay.^45 Where indicated, TNP (Cayman Chemical) was added to the assays (FIG. 2A-E).

IPMK = IPMK (Homo sapiens (Human), UniProt Q8NFU5); assay: Enzyme-coupled assay, IPMK IC50
Sequence of IPMK (Q8NFU5 whole entry, species assumed): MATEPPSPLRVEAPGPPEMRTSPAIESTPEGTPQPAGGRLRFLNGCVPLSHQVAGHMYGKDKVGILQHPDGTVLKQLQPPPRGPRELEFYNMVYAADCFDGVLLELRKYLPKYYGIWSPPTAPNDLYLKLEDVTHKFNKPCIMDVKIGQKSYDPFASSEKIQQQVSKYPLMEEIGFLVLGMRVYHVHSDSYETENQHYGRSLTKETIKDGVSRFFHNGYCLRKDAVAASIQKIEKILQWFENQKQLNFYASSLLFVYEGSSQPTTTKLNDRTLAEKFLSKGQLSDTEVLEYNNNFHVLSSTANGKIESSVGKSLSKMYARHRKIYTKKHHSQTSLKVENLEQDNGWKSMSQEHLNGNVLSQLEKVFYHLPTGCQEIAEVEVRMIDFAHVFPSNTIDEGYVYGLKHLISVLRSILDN

IP6K1 = IP6K1 (Homo sapiens (Human), UniProt Q92551); assay: Enzyme-coupled assay of IP6K1 activity (Dipp1-coupled, malachite green Pi release)
Sequence of IP6K1 (Q92551 whole entry): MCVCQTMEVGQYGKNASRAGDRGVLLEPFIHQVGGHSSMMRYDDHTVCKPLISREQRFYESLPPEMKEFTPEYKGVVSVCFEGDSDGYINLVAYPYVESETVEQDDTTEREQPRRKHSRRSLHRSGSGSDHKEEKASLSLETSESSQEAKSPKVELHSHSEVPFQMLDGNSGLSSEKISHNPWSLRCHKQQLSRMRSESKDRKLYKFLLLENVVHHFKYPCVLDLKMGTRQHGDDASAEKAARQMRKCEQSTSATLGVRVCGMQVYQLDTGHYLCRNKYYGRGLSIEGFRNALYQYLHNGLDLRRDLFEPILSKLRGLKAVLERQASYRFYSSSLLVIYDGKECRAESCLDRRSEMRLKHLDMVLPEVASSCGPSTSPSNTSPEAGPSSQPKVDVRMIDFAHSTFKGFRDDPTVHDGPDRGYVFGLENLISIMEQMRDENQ
Protocol: as §1, §2

IC50 (IP6K3; Table 4) [nM] | IC50 (IP6K2; Table 4) [nM] | IC50 (IPMK; Table 4) [nM] | IC50 (IP6K1; Table 4) [nM] | SMILES | further results
 |  |  |  | O=C(O)c1ccc2noc(-c3ccc(NC(=O)c4ccc(Cl)cc4)cc3)c2c1 [Compound 45] | IC50 (IP6K3; Table 2): 1000 to 100000 nM; IC50 (IP6K2; Table 2): 100 to 1000 nM; IC50 (IPMK; Table 2): 1000 to 100000 nM; IC50 (IP6K1; Table 2): 100 to 1000 nM
 |  |  |  | O=C(O)c1ccc2noc(-c3ccc(NC(=O)c4ccccc4)cc3)c2c1 [Compound 46] | IC50 (IP6K3; Table 2): 100 to 1000 nM; IC50 (IPMK; Table 2): 1000 to 100000 nM
 |  |  |  | O=C(O)c1ccc2noc(-c3ccc(NC(=O)c4ccncn4)cc3)c2c1 [Compound 47] | IC50 (IP6K3; Table 2): 100 to 1000 nM; IPMK IC50 (IPMK; Table 2): −
 |  |  |  | O=C(O)c1ccc2noc(-c3ccc(Cc4ccccc4)cc3)c2c1 [Compound 54, 3-(4-benzylphenyl)benzo[c]isoxazole-5-carboxylic acid] | IC50 (IP6K3; Table 3): 1000 to 100000 nM; IC50 (IPMK; Table 3): 10 to 100 nM
 |  |  |  | O=C(O)c1ccc2noc(-c3ccc(N4CCCCC4)cc3)c2c1 [Compound 55] | IC50 (IP6K3; Table 3): 1000 to 100000 nM; IPMK IC50 (IPMK; Table 3): −
 |  |  |  | O=C(O)c1ccc2noc(-c3ccc(N4CCCC4=O)cc3)c2c1 [Compound 56] | IC50 (IP6K3; Table 3): 1000 to 100000 nM; IC50 (IPMK; Table 3): 1000 to 100000 nM
 |  |  |  | O=C(O)c1ccc2noc(-c3ccc(-c4ccncc4)cc3)c2c1 [Compound 58] | IC50 (IP6K3; Table 3): 100 to 1000 nM; IC50 (IPMK; Table 3): 10 to 100 nM
100 to 1000 | 10 to 100 | 10 to 100 | 10 to 100 | c1ccc(-c2onc3ccc(-c4nnn[nH]4)cc23)cc1 [Compound 59] | 
1000 to 100000 | 100 to 1000 | 10 to 100 | 1000 to 100000 | c1ccc(-c2onc3ccc(-c4nc[nH]n4)cc23)cc1 [Compound 60] | 
1000 to 100000 | 1000 to 100000 | 10 to 100 | 1000 to 100000 | c1ccc(-c2onc3ccc(-n4cncn4)cc23)cc1 [Compound 61] | 
100 to 1000 | 10 to 100 | 10 to 100 | 10 to 100 | Fc1ccc(-c2onc3ccc(-c4nnn[nH]4)cc23)cc1 [Compound 63] | 
100 to 1000 | 10 to 100 | 10 to 100 | 10 to 100 | Cc1cc(C)cc(-c2onc3ccc(-c4nnn[nH]4)cc23)c1 [Compound 65] | 
100 to 1000 | 10 to 100 | 10 to 100 | 10 to 100 | FC(F)(F)Oc1ccc(-c2onc3ccc(-c4nnn[nH]4)cc23)cc1 [Compound 66] | 
100 to 1000 | 100 to 1000 | 10 to 100 | 10 to 100 | Clc1ccc(-c2onc3ccc(-c4nnn[nH]4)cc23)cc1Cl [Compound 67] | 
100 to 1000 | 10 to 100 |  | 10 to 100 | c1ccc(-c2ccc(-c3onc4ccc(-c5nnn[nH]5)cc34)cc2)cc1 [Compound 68] | 
100 to 1000 | 10 to 100 | < 10 | 10 to 100 | c1cncc(-c2ccc(-c3onc4ccc(-c5nnn[nH]5)cc34)cc2)c1 [Compound 69] | 
100 to 1000 | 100 to 1000 | < 10 | 1000 to 100000 | c1ccc(Oc2ccc(-c3onc4ccc(-c5nnn[nH]5)cc34)cc2)cc1 [Compound 70] | 
< 10 | 100 to 1000 | < 10 | 10 to 100 | O=C(Nc1ccc(-c2onc3ccc(-c4nnn[nH]4)cc23)cc1)C1CC1 [Compound 71] | 
< 10 | 10 to 100 | 10 to 100 | 10 to 100 | O=C(Nc1ccc(-c2onc3ccc(-c4nnn[nH]4)cc23)cc1)C1CCCC1 [Compound 72] | 
10 to 100 | 10 to 100 | < 10 | 10 to 100 | O=C(Nc1cccc(-c2onc3ccc(-c4nnn[nH]4)cc23)c1)C1CCCC1 [Compound 73] | 
10 to 100 | 10 to 100 | < 10 | 10 to 100 | O=C(Nc1cccc(-c2onc3ccc(-c4nnn[nH]4)cc23)c1)C1CC1 [Compound 74] | 
100 to 1000 | 100 to 1000 | < 10 | 100 to 1000 | CC(C)C(=O)Nc1cccc(-c2onc3ccc(-c4nnn[nH]4)cc23)c1 [Compound 75] | 
100 to 1000 | 10 to 100 | < 10 | 10 to 100 | Clc1ccccc1-c1onc2ccc(-c3nnn[nH]3)cc12 [Compound 76] | 
100 to 1000 | 10 to 100 | 10 to 100 | 10 to 100 | COc1ccccc1-c1onc2ccc(-c3nnn[nH]3)cc12 [Compound 77] | 
 | 10 to 100 | < 10 | 10 to 100 | O=C(C1CC1)N1CCC(Oc2cccc(-c3onc4ccc(-c5nnn[nH]5)cc34)c2)CC1 [Compound 89] | 
 | 10 to 100 | < 10 | 10 to 100 | CC(C)C(=O)N1CCC(Oc2cccc(-c3onc4ccc(-c5nnn[nH]5)cc34)c2)CC1 [Compound 90] | 
